Laboratory results reported in patent US20120232070A1, “Use of Indole Derivatives as Nurr-1 Activators for the Application Thereof as a Medicament for the Treatment of Parkinson's Disease” (Laboratoires Fournier SA, priority 2009, published 2012).

Assays:
[1] = target: hNurr1_RXRγFL (NURR1/RXRγ heterodimer) (Homo sapiens, UniProt P43354+P48443); assay: Transactivation assay in Cos-7 cells, NURR-1-Gal4 / RXRγ, luciferase reporter; format: cell-based; conditions: for Emax: COS-7, read-out: hNurr1_RXRγFL Eff (%), efficacy in % relative to the reference XCT0135908 at 2·10^−5 M (=100%); for EC50: Cos-7 cells, overnight incubation
Chain of hNurr1_RXRγFL (NURR1/RXRγ heterodimer) (P43354 328-598): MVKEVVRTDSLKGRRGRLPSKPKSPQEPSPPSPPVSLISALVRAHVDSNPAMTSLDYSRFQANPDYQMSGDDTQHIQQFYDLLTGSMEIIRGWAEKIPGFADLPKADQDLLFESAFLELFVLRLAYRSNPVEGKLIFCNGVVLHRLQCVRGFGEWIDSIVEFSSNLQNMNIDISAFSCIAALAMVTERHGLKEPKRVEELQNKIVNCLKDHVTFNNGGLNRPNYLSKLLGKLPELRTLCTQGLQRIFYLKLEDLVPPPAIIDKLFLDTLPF
Chain of hNurr1_RXRγFL (NURR1/RXRγ heterodimer) (P48443 whole entry, the tested form may be a part): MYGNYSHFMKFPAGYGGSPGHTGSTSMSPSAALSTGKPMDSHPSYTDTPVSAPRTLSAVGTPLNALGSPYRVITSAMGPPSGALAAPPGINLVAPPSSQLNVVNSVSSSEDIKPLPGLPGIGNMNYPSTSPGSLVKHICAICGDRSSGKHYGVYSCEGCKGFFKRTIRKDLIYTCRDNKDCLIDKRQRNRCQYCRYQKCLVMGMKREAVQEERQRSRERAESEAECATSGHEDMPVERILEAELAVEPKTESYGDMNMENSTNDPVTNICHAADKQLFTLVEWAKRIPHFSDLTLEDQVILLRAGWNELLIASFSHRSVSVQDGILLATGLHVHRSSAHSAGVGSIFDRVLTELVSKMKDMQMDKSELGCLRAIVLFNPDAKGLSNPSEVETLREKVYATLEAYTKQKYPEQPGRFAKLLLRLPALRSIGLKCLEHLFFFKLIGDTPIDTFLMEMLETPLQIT
How it was run: (§1)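 Cos-7 cells co-transfected with human NURR-1-Gal4 chimera, human RXRα or RXRγ, and 5Gal4pGL3-TK-Luc reporter; compounds added at 10^−4 to 3·10^−10 M final, overnight incubation, luciferase read. Induction over each heterodimer's baseline expressed as % of reference RXR agonist XCT0135908 (2·10^−5 M) taken as 100%.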

[2] = target: hNurr1_RXRαFL (NURR1/RXRα heterodimer) (Homo sapiens, UniProt P19793+P43354); assay: Transactivation assay in Cos-7 cells, NURR-1-Gal4 / RXRα, luciferase reporter; format: cell-based; conditions: for Emax: COS-7, read-out: hNurr1_RXRαFL Eff (%), efficacy in % relative to the reference XCT0135908 at 2·10^−5 M (=100%); for EC50: Cos-7 cells, overnight incubation
Chain of hNurr1_RXRαFL (NURR1/RXRα heterodimer) (P19793 whole entry, the tested form may be a part): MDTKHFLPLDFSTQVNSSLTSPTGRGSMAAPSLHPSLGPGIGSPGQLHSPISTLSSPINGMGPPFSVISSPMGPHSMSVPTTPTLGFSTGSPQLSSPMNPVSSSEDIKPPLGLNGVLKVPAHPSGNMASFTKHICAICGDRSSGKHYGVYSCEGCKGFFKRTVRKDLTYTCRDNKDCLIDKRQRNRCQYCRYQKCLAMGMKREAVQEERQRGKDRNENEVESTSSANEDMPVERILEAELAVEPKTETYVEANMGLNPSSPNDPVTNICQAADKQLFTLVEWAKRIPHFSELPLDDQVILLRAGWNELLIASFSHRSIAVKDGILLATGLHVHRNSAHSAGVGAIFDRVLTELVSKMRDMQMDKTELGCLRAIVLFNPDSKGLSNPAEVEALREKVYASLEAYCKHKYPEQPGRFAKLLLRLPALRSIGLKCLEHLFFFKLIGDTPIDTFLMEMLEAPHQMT
Chain of hNurr1_RXRαFL (NURR1/RXRα heterodimer) (P43354 328-598): as the sequence (P43354 328-598) above
How it was run: as §1

| SMILES | Emax [1] [%] | EC50 [1] [nM] | Emax [2] [%] | EC50 [2] [nM] |
| --- | --- | --- | --- | --- |
| O=C(O)c1ccc(Cc2cc3cc(C(F)(F)F)ccc3n2S(=O)(=O)c2ccc(Oc3ccccc3)nc2)cc1 [Example 130, 4-[[1-[(6-phenoxy-3-pyridinyl)sulfonyl]-5-(trifluoromethyl)-1H-indol-2-yl]methyl]benzoic acid] | 22 | 1700 | 30 | 347 |
| Cc1cc(C)n(-c2ccc(S(=O)(=O)n3c(Cc4ccc(C(=O)O)cc4)cc4cc(C(F)(F)F)ccc43)cc2)n1 [Example 131, 4-[[1-[4-(3,5-dimethyl-pyrazol-1-yl)-phenylsulfonyl]-5-(trifluoromethyl)-1H-indol-2-yl]methyl]benzoic acid] | 21 | 1480 | 30 | 603 |
| CC1(C)CCc2cc(S(=O)(=O)n3c(Cc4ccc(C(=O)O)cc4)cc4cc(C(F)(F)F)ccc43)ccc2O1 [Example 132, 4-[[1-[(3,4-dihydro-2,2-dimethyl-2H-1-benzopyran-6-yl)sulfonyl]-5-(trifluoromethyl)-1H-indol-2-yl]methyl]benzoic acid] | 28 | 352 | 45 | 221 |
| CCc1ccc(S(=O)(=O)n2c(Cc3ccc(C(=O)O)cc3)cc3cc(C(F)(F)F)ccc32)cc1 [Example 133, 4-[[1-[4-ethyl-phenylsulfonyl]-5-(trifluoromethyl)-1H-indol-2-yl]methyl]benzoic acid] | 38 | 304 | 49 | 177 |
| Cc1ccc(S(=O)(=O)n2c(Cc3ccc(C(=O)O)cc3)cc3cc(C(F)(F)F)ccc32)cc1 [Example 134] | 36 | 552 | 50 | 212 |
| O=C(O)c1ccc(Cc2cc3cc(C(F)(F)F)ccc3n2S(=O)(=O)c2ccc(N3CCOCC3)nc2)cc1 [Example 135, 4-[[1-[[6-(4-morpholinyl)-3-pyridinyl]sulfonyl]-5-(trifluoromethyl)-1H-indol-2-yl]methyl]benzoic acid] | 19 | 917 | 31 | 643 |
| O=C(O)c1ccc(Cc2cc3cc(C(F)(F)F)ccc3n2S(=O)(=O)c2ccc(Cl)cc2)cc1 [Example 136, 4-[[1-[4-chloro-phenylsulfonyl]-5-(trifluoromethyl)-1H-indol-2-yl]methyl]benzoic acid] | 25 | > 10000 | 35 | 275 |
| O=C(O)c1ccc(Cc2cc3cc(C(F)(F)F)ccc3n2S(=O)(=O)c2ccc(F)cc2)cc1 [Example 137, 4-[[1-[4-fluoro-phenylsulfonyl]-5-(trifluoromethyl)-1H-indol-2-yl]methyl]benzoic acid] | 18 | 730 | 37 | 529 |
| COc1ccc(S(=O)(=O)n2c(Cc3ccc(C(=O)O)cc3)cc3cc(C(F)(F)F)ccc32)cc1 [Example 138, 4-[[1-[4-methoxy-phenylsulfonyl]-5-(trifluoromethyl)-1H-indol-2-yl]methyl]benzoic acid] | 28 | 583 | 41 | 344 |
| CCCc1ccc(S(=O)(=O)n2c(Cc3ccc(C(=O)O)cc3)cc3cc(C(F)(F)F)ccc32)cc1 [Example 139, 4-[[1-[4-propyl-phenylsulfonyl]-5-(trifluoromethyl)-1H-indol-2-yl]methyl]benzoic acid] | 43 | 344 | 46 | 202 |
| CCCCCc1ccc(S(=O)(=O)n2c(Cc3ccc(C(=O)O)cc3)cc3cc(C(F)(F)F)ccc32)cc1 [Example 140, 4-[[1-[4-pentyl-benzenesulfonyl]-5-(trifluoromethyl)-1H-indol-2-yl]methyl]benzoic acid] | 22 | 387 | 46 | 368 |
| Cc1cccc(S(=O)(=O)n2c(Cc3ccc(C(=O)O)cc3)cc3cc(C(F)(F)F)ccc32)c1 [Example 141, 4-[[1-[(3-methylphenyl)sulfonyl]-5-(trifluoromethyl)-1H-indol-2-yl]methyl]benzoic acid] | 30 | 364 | 41 | 285 |
| O=C(O)c1ccc(Cc2cc3cc(C(F)(F)F)ccc3n2S(=O)(=O)c2ccc(OC(F)(F)F)cc2)cc1 [Example 142, 4-[[1-[4-trifluoromethoxy-phenylsulfonyl]-5-(trifluoromethyl)-1H-indol-2-yl]methyl]benzoic acid] | 19 | 816 | 38 | 459 |
| O=C(O)c1ccc(Cc2cc3cc(C(F)(F)F)ccc3n2S(=O)(=O)c2cccc(Cl)c2)cc1 [Example 143, 4-[[1-[3-chloro-phenylsulfonyl]-5-(trifluoromethyl)-1H-indol-2-yl]methyl]benzoic acid] | 18 | 425 | 33 | 339 |
| O=C(O)c1ccc(Cc2cc3cc(C(F)(F)F)ccc3n2S(=O)(=O)c2ccc(Oc3ccccc3)cc2)cc1 [Example 144, 4-[[1-[4-phenoxy-phenylsulfonyl]-5-(trifluoromethyl)-1H-indol-2-yl]methyl]benzoic acid] | 19 | > 10000 | 30 | 839 |
| O=C(O)c1ccc(Cc2cc3cc(C(F)(F)F)ccc3n2S(=O)(=O)c2cccc(OC(F)(F)F)c2)cc1 [Example 145, 4-[[1-[3-trifluoromethoxy-phenylsulfonyl]-5-(trifluoromethyl)-1H-indol-2-yl]methyl]benzoic acid] | 21 | 638 | 44 | 359 |
| O=C(O)c1ccc(Cc2cc3cc(C(F)(F)F)ccc3n2S(=O)(=O)c2cccc(-c3ccc(Cl)cc3)c2)cc1 [Example 146, 4-[[1-[4′-chloro-biphenyl-3-sulfonyl]-5-(trifluoromethyl)-1H-indol-2-yl]methyl]benzoic acid] | 24 | 1180 | 43 | 619 |
| O=C(O)c1ccc(Cc2cc3cc(C(F)(F)F)ccc3n2S(=O)(=O)c2ccc(Cl)c(OC(F)F)c2)cc1 [Example 147, 4-[[1-[4-chloro-3-difluoromethoxy-phenylsulfonyl]-5-(trifluoromethyl)-1H-indol-2-yl]methyl]benzoic acid] | 30 | 1100 | 49 | 825 |
| COC(=O)c1ccc(Cc2c(F)c3cc(C(F)(F)F)ccc3n2S(=O)(=O)c2cccc(C(C)(C)C)c2)cc1 [Example 148, 4-[[1-[[3-(1,1-dimethylethyl)phenyl]sulfonyl]-3-fluoro-5-(trifluoromethyl)-1H-indol-2-yl]methyl]-benzoic acid, methyl ester] | 101 | 121 | 119 | 62 |
| CC(C)(C)c1cccc(S(=O)(=O)n2c(Cc3ccc(C(=O)O)cc3)c(F)c3cc(C(F)(F)F)ccc32)c1 [Example 149, 4-[[1-[[3-(1,1-dimethylethyl)phenyl]sulfonyl]-3-fluoro-5-(trifluoromethyl)-1H-indol-2-yl]methyl]-benzoic acid] | 80 | 225 | 98 | 94 |
| O=C(O)c1ccc(Cc2cc3cc(Cl)ccc3n2S(=O)(=O)c2ccc(F)c(Cl)c2)cc1 [Example 150, 4-[[1-[3-chloro-4-fluoro-phenylsulfonyl]-5-(chloro)-1H-indol-2-yl]methyl]benzoic acid] | 96 | 501 | 103 | 299 |
| O=C(O)c1ccc(Cc2cc3cc(Cl)ccc3n2S(=O)(=O)c2ccc(-c3ccccc3)cc2)cc1 [Example 151, 4-[[1-[biphenyl-4-sulfonyl]-5-(chloro)-1H-indol-2-yl]methyl]benzoic acid] | 17 | > 10000 | 80 | 427 |
| CCCc1ccc(S(=O)(=O)n2c(Cc3ccc(C(=O)O)cc3)cc3cc(Cl)ccc32)cc1 [Example 152, 4-[[1-[4-propyl-phenylsulfonyl]-5-(chloro)-1H-indol-2-yl]methyl]benzoic acid] | 75 | 858 | 87 | 269 |
| O=C(O)c1ccc(Cc2cc3cc(Cl)ccc3n2S(=O)(=O)c2ccc(F)c(F)c2)cc1 [Example 153, 4-[[1-[3-fluoro-4-fluoro-phenylsulfonyl]-5-(chloro)-1H-indol-2-yl]methyl]benzoic acid] | 63 | 1390 | 85 | 851 |
| O=C(O)c1ccc(Cc2cc3cc(Cl)ccc3n2S(=O)(=O)c2cccc(F)c2)cc1 [Example 154, 4-[[1-[3-fluoro-phenylsulfonyl]-5-(chloro)-1H-indol-2-yl]methyl]benzoic acid] | 66 | 1360 | 68 | 472 |
| CC(C)(C)c1ccc(S(=O)(=O)n2c(Cc3ccc(C(=O)O)cc3)cc3cc(Cl)ccc32)cc1 [Example 155, 4-[[1-[4-tert-butyl-phenylsulfonyl]-5-(chloro)-1H-indol-2-yl]methyl]benzoic acid] | 59 | 468 | 69 | 262 |
| O=C(O)c1ccc(Cc2cc3cc(Cl)ccc3n2S(=O)(=O)c2ccc(OC(F)(F)F)cc2)cc1 [Example 156, 4-[[1-[4-trifluoromethoxy-phenylsulfonyl]-5-(chloro)-1H-indol-2-yl]methyl]benzoic acid] | 43 | 1300 | 69 | 638 |
